The values below come from PMC10113378, “Synthesis, in vitro α-glucosidase inhibitory activities, and molecular dynamic simulations of novel 4-hydroxyquinolinone-hydrazones as potential antidiabetic agents” (Scientific Reports, 2023).

In data set [1] the target is α-glucosidase. The following applies: cited from earlier work.
The target in data set [2] is T1, α-glucosidase enzyme (EC3.2.1.20, Saccharomyces cerevisiae) (Saccharomyces cerevisiae, UniProt P53341).
T1 construct: purchased Sigma-Aldrich
T1 sequence (P53341 whole entry): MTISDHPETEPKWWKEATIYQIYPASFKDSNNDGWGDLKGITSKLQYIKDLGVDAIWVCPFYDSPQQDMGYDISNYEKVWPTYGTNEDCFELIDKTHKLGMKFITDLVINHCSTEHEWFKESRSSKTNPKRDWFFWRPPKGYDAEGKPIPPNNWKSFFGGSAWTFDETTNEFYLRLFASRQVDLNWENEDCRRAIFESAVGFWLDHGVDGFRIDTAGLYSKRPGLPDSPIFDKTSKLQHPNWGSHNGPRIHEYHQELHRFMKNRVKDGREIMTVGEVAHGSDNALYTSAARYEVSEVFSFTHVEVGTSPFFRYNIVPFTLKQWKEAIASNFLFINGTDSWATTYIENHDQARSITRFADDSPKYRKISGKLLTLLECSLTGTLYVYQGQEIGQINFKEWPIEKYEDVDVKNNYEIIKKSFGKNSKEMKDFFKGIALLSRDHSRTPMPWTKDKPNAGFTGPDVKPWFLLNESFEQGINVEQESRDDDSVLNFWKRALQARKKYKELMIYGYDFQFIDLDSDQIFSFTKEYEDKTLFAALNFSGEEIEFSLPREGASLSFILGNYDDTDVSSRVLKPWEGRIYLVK
Nature of the data set: biochemical. The conditions noted are these: mean ± SD; substrate p-nitrophenyl glucopyranoside 4 mM, pH 6.8, 37 °C; read-out: α-Glucosidase inhibition IC50. On the procedure: α-glucosidase enzyme (EC3.2.1.20, Saccharomyces cerevisiae, 20 U/mg) and substrate (p-nitrophenyl glucopyranoside) were purchased from Sigma-Aldrich. 1 mg of α-glucosidase was dissolved in potassium phosphate buffer (50 mM, pH = 6.8) to obtain the initial activity of 1 U/ml. Then, 20 µl of this enzyme solution was incubated with 135 µl of potassium phosphate buffer and 20 µl of test compound at various concentrations in DMSO. […] The percentage of inhibition for each entry was calculated by using the following formula: %Inhibition=Abscontrol-Abssample/Abscontrol×100.
IC50 values were obtained from the nonlinear regression curve using the Logit method[28],[29].

Data set [3] deals with T2, α-glucosidase (Saccharomyces cerevisiae, UniProt P53341).
T2 construct: purchased Sigma-Aldrich
T2 sequence (P53341 whole entry): as above
Nature of the data set: Enzyme kinetic studies (Lineweaver–Burk plot, secondary plot). Type of data set: biochemical. The conditions noted are these: for mode of inhibition: Lineweaver–Burk plot, Km increased, Vmax unchanged; for Ki: from plot of Km versus inhibitor concentration, read-out: inhibition constant, Ki. Here is the method: A Lineweaver–Burk plot was generated to identify the type of inhibition and the Michaelis–Menten constant (Km) value was determined from the plot between the reciprocal of the substrate concentration (1/[S]) and reciprocal of enzyme rate (1/V) over various inhibitors concentrations[30],[31].

Where two headings read alike, the source gives them in different places.

What is called IC50 is the concentration that gives 50% inhibition. As to `O=C(N/N=C/c1ccc(O)c(O)c1)c1ccc2ncccc2c1` [D], on α-glucosidase [1] (quinoline derivatives, read-out: IC50), the IC50 was 6.2 ± 0.3 µM. By melting point is commonly meant the temperature of the solid-liquid transition. For `COc1cc(/C=N/NC(=O)c2c(O)c3ccccc3[nH]c2=O)ccc1O` [Compound 6o, (E)-4-hydroxy-N'-(4-hydroxy-3-methoxybenzylidene)-2-oxo-1,2-dihydroquinoline-3-carbohydrazide], the melting point was in the range of 193 to 195 °C. Moreover, the IC50 in data set [2] was 575.6 ± 0.4 µM.

Consider `O=C(N/N=C/c1ccccc1)c1c(O)nc2ccccc2c1O` [Compound 6a, (E)-N'-benzylidene-4-hydroxy-2-oxo-1,2-dihydroquinoline-3-carbohydrazide], for which the IC50 in data set [2] stood at 382.6 ± 0.9 µM. For `O=C(N/N=C/c1ccc(F)cc1)c1c(O)nc2ccccc2c1O` [Compound 6c, (E)-N'-(4-fluorobenzylidene)-4-hydroxy-2-oxo-1,2-dihydroquinoline-3-carbohydrazide], the IC50 in data set [2] came out at 195.3 ± 1.2 µM. Consider `O=C(N/N=C/c1ccccc1F)c1c(O)c2ccccc2[nH]c1=O` [Compound 6b, (E)-N'-(2-fluorobenzylidene)-4-hydroxy-2-oxo-1,2-dihydroquinoline-3-carbohydrazide], for which the melting point lay within 190 to 192 °C. For the same compound, in data set [2], the IC50 came to 247 ± 1.1 µM. On to `Oc1ccc2ccccc2n1` [A, 2-hydroxyquinoline], for which the IC50 on α-glucosidase [1] (Fig. 1) is 64.4 ± 1.7 µg/mL. As for `O=C(N/N=C/c1ccccc1O)c1c(O)c2ccccc2[nH]c1=O` [Compound 6j, (E)-4-hydroxy-N'-(2-hydroxybenzylidene)-2-oxo-1,2-dihydroquinoline-3-carbohydrazide], the melting point was in the range of 177 to 179 °C. Besides, the IC50 in data set [2] was found to be 154.8 ± 0.1 µM. Regarding `C[C@H]1O[C@H](O[C@H]2[C@H](O)[C@@H](O)[C@@H](O[C@H]3[C@H](O)[C@@H](O)C(O)O[C@@H]3CO)O[C@@H]2CO)[C@H](O)[C@@H](O)[C@@H]1N[C@H]1C=C(CO)[C@@H](O)[C@H](O)[C@H]1O` (some centres unmarked) [Acarbose], the α-glucosidase inhibition with α-glucosidase [1] (at 128 μg/mL) is recorded as 75.55%. In turn, `COc1ccc(/C=N/NC(=O)c2c(O)c3ccccc3[nH]c2=O)cc1` [Compound 6i, (E)-4-hydroxy-N'-(4-methoxybenzylidene)-2-oxo-1,2-dihydroquinoline-3-carbohydrazide] returned a melting point of 189 to 191 °C. Also, the IC50 in data set [2] is 259 ± 1 µM.

Turning to `O=C(N/N=C/c1cccc(Br)c1)c1c(O)c2ccccc2[nH]c1=O` [Compound 6e, (E)-N'-(3-bromobenzylidene)-4-hydroxy-2-oxo-1,2-dihydroquinoline-3-carbohydrazide], the melting point lay within 187 to 189 °C. Also, the IC50 in data set [2] was 436.7 ± 1 µM. On the same counts, the results for `Cc1ccc(/C=N/NC(=O)c2c(O)c3ccccc3[nH]c2=O)cc1` [Compound 6h, (E)-4-hydroxy-N'-(4-methylbenzylidene)-2-oxo-1,2-dihydroquinoline-3-carbohydrazide] are 180 to 182 °C and 136.7 ± 0.5 µM. In the case of `O=C(Cc1ccc(Cl)cc1Cl)N/N=C1/C(=O)Nc2cc(Br)ccc21` [E], at α-glucosidase [1] (isatin-hydrazone structure, recent research (reference number not given), read-out: IC50), the IC50 was 2.2 ± 0.25 µM.

Take `O=C(N/N=C/c1ccc(Cl)cc1)c1c(O)c2ccccc2[nH]c1=O` [Compound 6d, (E)-N'-(4-chlorobenzylidene)-4-hydroxy-2-oxo-1,2-dihydroquinoline-3-carbohydrazide]: the melting point lay in the range of 194 to 196 °C. Further, the IC50 in data set [2] is 131.6 ± 0.3 µM.

With `O=C(N/N=C/c1ccc(Br)cc1)c1c(O)c2ccccc2[nH]c1=O` [Compound 6f, (E)-N'-(4-bromobenzylidene)-4-hydroxy-2-oxo-1,2-dihydroquinoline-3-carbohydrazide], the melting point lay within 179 to 181 °C. In addition, the IC50 in data set [2] came to 520.2 ± 1.5 µM. With `O=C(N/N=C/c1ccc(Cl)cc1)c1ccc(-c2nc3ccccc3s2)cc1` [G], the IC50 on α-glucosidase [1] (benzothiazole-bearing benzohydrazide, read-out: IC50) is 5.31 ± 0.03 µM. For the compound `O=C(N/N=C/c1ccc(O)c(O)c1)c1ccc(-c2nnc(-c3ccc4ncccc4c3)o2)cc1` [C], on α-glucosidase [1] (quinoline–oxadiazole Schiff bases, read-out: IC50), the IC50 is 2.6 ± 0.01 µM. In the case of `O=C(N/N=C/c1ccc([N+](=O)[O-])cc1)c1c(O)c2ccccc2[nH]c1=O` [Compound 6g, (E)-4-hydroxy-N'-(4-nitrobenzylidene)-2-oxo-1,2-dihydroquinoline-3-carbohydrazide], the melting point fell in the range of 208 to 210 °C. In addition, the IC50 in data set [2] came out at 120.5 ± 0.8 µM.

With `O=C(N/N=C/c1cccc(F)c1)c1ccc2nc(-c3ccccc3)c(-c3ccccc3)nc2c1` [H], the mode of inhibition result in the data set with α-glucosidase [1] is “competitive mode of inhibition”. For the same compound, the IC50 at α-glucosidase [1] (read-out: IC50) was 111 µM. The compound `O=C(N/N=C/c1ccc(O)cc1O)c1c(O)c2ccccc2[nH]c1=O` [Compound 6n, (E)-N'-(2,4-dihydroxybenzylidene)-4-hydroxy-2-oxo-1,2-dihydroquinoline-3-carbohydrazide] had a melting point of 185 to 187 °C. Further, the IC50 in data set [2] came to 187.8 ± 0.3 µM. Take `O=C(N/N=C/c1c(O)cc(O)cc1O)c1ccc(-c2cc(=O)c3ccccc3o2)cc1` [F]: the IC50 on α-glucosidase [1] (flavone-hydrazone, read-out: IC50) was 15.4 ± 0.22 µM. As usually defined, the Ki is the dissociation constant of the complex between target and ligand, obtained from inhibition or displacement. `O=C(N/N=C/c1cc(Br)ccc1O)c1c(O)c2ccccc2[nH]c1=O` [Compound 6l, (E)-N'-(5-bromo-2-hydroxybenzylidene)-4-hydroxy-2-oxo-1,2-dihydroquinoline-3-carbohydrazide] displayed a melting point of 171 to 173 °C. The IC50 in data set [2] turned out to be 94.2 ± 1 µM. On α-glucosidase [3], the mode of inhibition entry is reported as “competitive inhibition” and the Ki was found to be 92 µM. For `O=C(N/N=C/c1cccc(O)c1)c1c(O)c2ccccc2[nH]c1=O` [Compound 6k, (E)-4-hydroxy-N'-(3-hydroxybenzylidene)-2-oxo-1,2-dihydroquinoline-3-carbohydrazide], the melting point lay within 186 to 188 °C. In data set [2], the IC50 is 196.3 ± 0.7 µM. `O=C(N/N=C/c1cc([N+](=O)[O-])ccc1O)c1c(O)c2ccccc2[nH]c1=O` [Compound 6m, (E)-4-hydroxy-N'-(2-hydroxy-5-nitrobenzylidene)-2-oxo-1,2-dihydroquinoline-3-carbohydrazide]: the melting point lay within 198 to 200 °C. The IC50 in data set [2] came out at 93.5 ± 0.6 µM. At α-glucosidase [3], the mode of inhibition entry is on record as “competitive inhibition” and the Ki came to 93 µM.
